US11174240B2, “Crystalline solid compound of 3-phenyl-4-propyl-1-(pyridin-2-yl)-1H-pyrazol-5-ol hydrochloride” (Aptabio Therapeutics Inc., priority 2017, dated 2021)

Key:
Type in all cases: physicochemical
[1] = Hygroscopicity test (Karl-Fischer water content under accelerated storage); details: for Water content (%) 1 day: 1 day at 40° C. / 75% relative humidity; for Water content (%) 1 day / Water content (%) 3 days / Water content (%) 7 days: Petri dish without sealing; for Water content (%) 3 days: 3 days at 40° C. / 75% relative humidity; for Water content (%) 7 days: 7 days at 40° C. / 75% relative humidity; for Water content (%) Initial: before storage at 40° C. / 75% relative humidity
Protocol: (§1) Hygroscopicity comparison experiments were conducted on each of the crystalline free base compound (Example 1), the crystalline hydrochloride compound (Example 2), the non-crystalline free base compound (Comparative Example 1), the non-crystalline hydrochloride compound (Comparative Example 2) and various crystalline acid addition compounds (Comparative Example 3).
The test compounds were exposed in a Petri dish under accelerated storage conditions at a temperature of 40° C. and a relative humidity of 75% for 7 days without sealing. The water content of each test compound was measured using a Karl-Fischer moisture meter. Table 2 summarizes the water content (%) of each test compound measured during the storage period.

[2] = Stability comparison test (long-term storage, HPLC of decomposition product of Formula 3 and total impurities); details: for Concentration of decomposition product of Formula 3 (%) 6 months / Total impurity concentration (%) 6 months: 6 months at 25° C. / 60% relative humidity
Protocol: as §1, with “Stability” for “Hygroscopicity”
The test compound was stored in a chamber for stability measurement under long-term storage conditions at a temperature of 25° C. and a relative humidity of 60% for 6 months. For storage, each test compound was placed in a double polyethylene bag, and the polyethylene bag was filled with a silica gel pouch and was then placed in a small paper box (fiber drum).
The following Table 3 summarizes the results of the measurement of the concentration of the degradation product of Formula 3 and the total impurity concentration by HPLC analysis after storage under long-term storage conditions for 6 months.
[Analytical Conditions of Liquid Chromatography (HPLC)]
Column temperature: 35° C.
Detector: UV Detector (246 nm)
Gradient condition of mobile phase: […]

[3] = Evaluation of polymorphic transition (PXRD and DSC after storage); details: for DSC endothermic temperature 4 weeks: 4 weeks at 40° C. / 75% relative humidity in polyethylene bag; for DSC endothermic temperature Initial: initial state; for Comparison and determination results (polymorphic transition): initial vs 4 weeks at 40° C. / 75% relative humidity, PXRD and DSC
Protocol: In order to determine whether or not the polymorphic transition phenomenon occurs under the storage conditions in the crystalline free base compound (Example 1) and the crystalline hydrochloride compound (Example 2), the results of PXRD analysis in the initial state and the possibility of polymorphic transition over time were examined.
Specifically, the test compound was stored in a polyethylene bag in a chamber for stability measurement at a temperature of 40° C. and a relative humidity of 75% for 4 weeks. Also, PXRD and DSC analysis results, measured at the initial state and after 4 weeks, were compared.

Water content (%) 1 day [1] [%]	Water content (%) 3 days [1] [%]	Water content (%) 7 days [1] [%]	Water content (%) Initial [1] [%]	Concentration of decomposition product of Formula 3 (%) 6 months [2] [%]	Total impurity concentration (%) 6 months [2] [%]	Concentration of decomposition product of Formula 3 (%) Initial [2] [%]	Total impurity concentration (%) Initial [2] [%]	DSC endothermic temperature 4 weeks [3] [°C]	DSC endothermic temperature Initial [3] [°C]	Comparison and determination results (polymorphic transition) [3]	Water content (%) 1 day ([1]; hydrochloride) [%]	Water content (%) 3 days ([1]; hydrochloride) [%]	Water content (%) 7 days ([1]; hydrochloride) [%]	Water content (%) Initial ([1]; hydrochloride) [%]	Concentration of decomposition product of Formula 3 (%) 6 months ([2]; hydrochloride) [%]	Total impurity concentration (%) 6 months ([2]; hydrochloride) [%]	Concentration of decomposition product of Formula 3 (%) Initial ([2]; hydrochloride) [%]	Total impurity concentration (%) Initial ([2]; hydrochloride) [%]	Comparison and determination results (polymorphic transition) ([3]; hydrochloride)	Structure (SMILES)
0.42	0.44	0.48	0.37	0.38	1.65	0.09	0.48													CCCc1c(-c2ccccc2)nn(-c2ccccn2)c1O [Succinate, 3-phenyl-4-propyl-1-(pyridin-2-yl)-1H-pyrazol-5-ol]
0.34	0.34	0.38	0.33	0.54	1.85	0.10	0.40													CCCc1c(-c2ccccc2)nn(-c2ccccn2)c1O [L-tartrate, 3-phenyl-4-propyl-1-(pyridin-2-yl)-1H-pyrazol-5-ol]
1.58	1.75	2.80	0.45	0.78	3.27	0.12	0.58													CCCc1c(-c2ccccc2)nn(-c2ccccn2)c1O [L-malate, 3-phenyl-4-propyl-1-(pyridin-2-yl)-1H-pyrazol-5-ol]

Second part, the compound before the results:

Structure (SMILES)	Water content (%) 1 day [1] [%]	Water content (%) 3 days [1] [%]	Water content (%) 7 days [1] [%]	Water content (%) Initial [1] [%]	Concentration of decomposition product of Formula 3 (%) 6 months [2] [%]	Total impurity concentration (%) 6 months [2] [%]	Concentration of decomposition product of Formula 3 (%) Initial [2] [%]	Total impurity concentration (%) Initial [2] [%]	DSC endothermic temperature 4 weeks [3] [°C]	DSC endothermic temperature Initial [3] [°C]	Comparison and determination results (polymorphic transition) [3]	Water content (%) 1 day ([1]; hydrochloride) [%]	Water content (%) 3 days ([1]; hydrochloride) [%]	Water content (%) 7 days ([1]; hydrochloride) [%]	Water content (%) Initial ([1]; hydrochloride) [%]	Concentration of decomposition product of Formula 3 (%) 6 months ([2]; hydrochloride) [%]	Total impurity concentration (%) 6 months ([2]; hydrochloride) [%]	Concentration of decomposition product of Formula 3 (%) Initial ([2]; hydrochloride) [%]	Total impurity concentration (%) Initial ([2]; hydrochloride) [%]	Comparison and determination results (polymorphic transition) ([3]; hydrochloride)
CCCc1c(-c2ccccc2)nn(-c2ccccn2)c1O [Example 1, 3-phenyl-4-propyl-1-(pyridin-2-yl)-1H-pyrazol-5-ol]	0.29	0.32	0.34	0.26	0.09	0.47	0.05	0.32	72.8	73.54	no polymorphic transition occurred									
CCCc1c(-c2ccccc2)nn(-c2ccccn2)c1O [Hemi-1,5-naphthalene disulfonate, 3-phenyl-4-propyl-1-(pyridin-2-yl)-1H-pyrazol-5-ol]	0.12	0.13	0.15	0.12	0.35	1.24	0.08	0.52												
CCCc1c(-c2ccccc2)nn(-c2ccccn2)c1O.Cl [Example 2, 3-phenyl-4-propyl-1-(pyridin-2-yl)-1H-pyrazol-5-ol hydrochloride]									133.4	134.25		0.31	0.37	0.39	0.25	0.08	0.45	0.03	0.28	no polymorphic transition occurred
CCCc1c(-c2ccccc2)nn(-c2ccccn2)c1O.Cl [Comparative Example 2, 3-phenyl-4-propyl-1-(pyridin-2-yl)-1H-pyrazol-5-ol hydrochloride]												1.98	3.54	7.52	0.31	0.92	5.87	0.05	0.35	
CCCc1c(-c2ccccc2)nn(-c2ccccn2)c1O [Comparative Example 1, 3-phenyl-4-propyl-1-(pyridin-2-yl)-1H-pyrazol-5-ol]	1.30	2.27	2.95	0.33	0.65	7.58	0.06	0.26												
